From US9707202B2, “Certain chemical entities, compositions, and methods” (NEUPHARMA, INC., priority 2011, dated 2017)
Converted amounts (≈) assume the structure as drawn.

Experiments:
[1] = Equilibrium solubility in aqueous buffer; format: physicochemical; details: thermodynamic from solid, NaOAc/AcOH buffer (100 mM, pH 5.0), shaken at rt for 24 h, HPLC UV
Description: The equilibrium solubility of compounds was measured in aqueous buffer. Excess amount of solid compound was added into buffer solution and the sample was briefly sonicated and then shaken at rt for 24 h. The sample was filtered and the concentration was analyzed by HPLC UV. A standard solution at 0.2 mg/mL was prepared in methanol or acetonitrile for each compound and used as an external standard for quantification.

A549 cells = test: Inhibition of cell growth in tumor cells (MTT assay); format: cell-based; details: Homo sapiens, 72 h compound exposure
Description: Inhibition of cell growth by compounds was measured using MTT assay (Mosmann, T., Journal of Immunological Methods, 1983, 65, 55-63). Tumor cell lines were purchased from ATCC (American Type Culture Collection, Manassas, Va.). All cell lines were maintained in RPMI 1640 (Hyclone) supplemented with 10% fetal bovine serum (FBS, Hyclone), glutamine (2 mM, Hyclone), and antibiotics (penicillin 100 U/mL and streptomycin 50 µg/mL) at 37° C. in a humidified atmosphere of 5% CO2 in air. Taxol (positive control, Sigma) and compounds were dissolved in DMSO (Sigma), and the final concentration of DMSO in the medium was 1%. Tumor cells were plated in 96-well plates at densities from 4000 cells/well of a 96-well plate and allowed to adhere/grow for 24 h. They were then treated with various concentrations of drug for 72 h. 3-(4,5-Dimethylthiazol-2-yl)-2,5-diphenyltetrazolium bromide (MTT, Sigma) was used to determine the number of viable cells at the time of compound addition and the number of cells remaining after 72 h compound exposure. The number of cells remaining after 72 h was compared to the number of viable cells at the time of compound addition by measuring the absorbance at 570 nm, allowing for the calculation of growth inhibition.
All concentrations of compounds were tested in triplicate and controls were averaged over 4 wells. IC50 was calculated by plotting the concentration of compound vs the percentage of inhibition in treated wells using GraphPad Prism 5.

COc1ccc(/C=C/C(=O)CC(=O)/C=C/c2ccc(OC(=O)N3CCN(C)CC3)c(OC)c2)cc1OC [4-((1E,6E)-7-(3,4-dimethoxyphenyl)-3,5-dioxohepta-1,6-dien-1-yl)-2-methoxyphenyl 4-methylpiperazine-1-carboxylate] gave a solubility at 24 h [1] of 320 µg/mL (≈ 629 µM) and an IC50 (A549 cells) of 4.3 µM.

With COc1ccc(/C=C/C(=O)CC(=O)/C=C/c2ccc(OC(=O)N(C)C)c(OC)c2)cc1OC [4-((1E,6E)-7-(3,4-dimethoxyphenyl)-3,5-dioxohepta-1,6-dien-1-yl)-2-methoxyphenyl dimethylcarbamate] the IC50 (A549 cells) was 10.6 µM.

For COc1ccc(/C=C/C(=O)CC(=O)/C=C/c2ccc(OC(=O)N3CCOCC3)c(OC)c2)cc1OC [4-((1E,6E)-7-(3,4-dimethoxyphenyl)-3,5-dioxohepta-1,6-dien-1-yl)-2-methoxyphenyl morpholine-4-carboxylate], the IC50 (A549 cells) was 4.6 µM.

COc1cc(/C=C/C(=O)CC(=O)/C=C/c2ccc(OC(=O)N(C)C)c(OC)c2)ccc1OCCO [4-((1E,6E)-7-(4-(2-hydroxyethoxy)-3-methoxyphenyl)-3,5-dioxohepta-1,6-dien-1-yl)-2-methoxyphenyl dimethylcarbamate] gave an IC50 (A549 cells) of 9.1 µM.

COc1cc(/C=C/C(=O)CC(=O)/C=C/c2ccc(OC(=O)N3CCCCC3)c(OC)c2)ccc1OCCO [4-((1E,6E)-7-(4-(2-hydroxyethoxy)-3-methoxyphenyl)-3,5-dioxohepta-1,6-dien-1-yl)-2-methoxyphenyl piperidine-1-carboxylate] showed an IC50 (A549 cells) of 10.9 µM.

In the case of COc1cc(/C=C/C(=O)CC(=O)/C=C/c2ccc(OC(=O)N3CCN(C)CC3)c(OC)c2)ccc1O [4-((1E,6E)-7-(4-hydroxy-3-methoxyphenyl)-3,5-dioxohepta-1,6-dien-1-yl)-2-methoxyphenyl 4-methylpiperazine-1-carboxylate], the solubility at 24 h [1] is reported as 18 µg/mL (≈ 36.4 µM) and the IC50 (A549 cells) is reported as 3.8 µM.

Work on COc1cc(/C=C/C(=O)CC(=O)/C=C/c2ccc(OC(=O)N(C)C)c(OC)c2)ccc1O [4-((1E,6E)-7-(4-hydroxy-3-methoxyphenyl)-3,5-dioxohepta-1,6-dien-1-yl)-2-methoxyphenyl dimethylcarbamate] yielded an IC50 (A549 cells) of 2.3 µM.

Compound COc1cc(/C=C/C(=O)CC(=O)/C=C/c2ccc(OC(=O)N3CCOCC3)c(OC)c2)ccc1O [4-((1E,6E)-7-(4-hydroxy-3-methoxyphenyl)-3,5-dioxohepta-1,6-dien-1-yl)-2-methoxyphenyl morpholine-4-carboxylate] has an IC50 (A549 cells) of 7.2 µM.

For COc1cc(/C=C/C(=O)CC(=O)/C=C/c2ccc(OC(=O)N3CCNCC3)c(OC)c2)ccc1O [4-((1E,6E)-7-(4-hydroxy-3-methoxyphenyl)-3,5-dioxohepta-1,6-dien-1-yl)-2-methoxyphenyl piperazine-1-carboxylate], the solubility at 24 h [1] was 1390 µg/mL (≈ 2890 µM) and the IC50 (A549 cells) was 9.2 µM.

COc1cc(/C=C/C(=O)CC(=O)/C=C/c2ccc(OC(=O)N3CCCCC3)c(OC)c2)ccc1O [4-((1E,6E)-7-(4-hydroxy-3-methoxyphenyl)-3,5-dioxohepta-1,6-dien-1-yl)-2-methoxyphenyl piperidine-1-carboxylate] gave an IC50 (A549 cells) of 8 µM.

With COc1cc(/C=C/C(=O)CC(=O)/C=C/c2ccc(O)c(OC)c2)ccc1O [Curcumin, reference compound] the solubility at 24 h ([1]; aqueous buffer (NaOAc/AcOH)) was < 1 µg/mL and the IC50 (A549 cells) was > 30 µM.
